This passage reports IC50 results from patent publication US20210170033A1, “NOVEL CONJUGATES OF A PHARMACEUTICAL AGENT AND A MOIETY CAPABLE OF BINDING TO A GLUCOSE SENSING PROTEIN” (SANOFI, priority 2017, published 2021).

Where two headings read alike, the source gives them in different places.

This assay deals with A2780 cells. Put plainly: Deoxy-glucose uptake assay in A2780 cells (14C 2-deoxy-D-glucose transport). Particulars: Homo sapiens. Format: cell-based. The method, then: 1. Deoxy-Glucose Uptake Assay in A2780 Cells:
For measurement of ^14C 2-deoxy-D-glucose transport into A2780 cells, cells were seeded in 96-well plates (Cytostar-T Plates Perkin Elmer, 70,000 cells/180 μl/well) in medium complete (RPMI1640+Glutamax (Life technologies #61870)) and grown for 48 hours. After 48 h, cells were washed once with 180 μL KRB (Krebs Ringer Bicarbonate) buffer, and stimulated in a dose dependent manner by adding 10 μL of test compound dilution 0-1.1 mM (11 times higher concentration than final) or 10 μL of 1.1 mM Cytochalasin B solution as negative control, to 90 μL KRB buffer and incubated for 20 minutes. After compound stimulation, the transport of ^14C 2-deoxy-D-glucose was started by adding of 50 μL 2-^14C[U] 2-deoxy-D-glucose solution (109.1 μM 2-deoxy-D-glucose cold and 33 μM 2-^14C[U] 2-deoxy-D-glucose 0.1 μCi/well) for 20 minutes. Transport was stopped by adding 50 μL/well 96 μM Cytochalasin B solution. Plates were measured in a 96-well Wallac Microbeta device. The cpm (counts per minute) values were used to determine the % inhibition values for the test compounds within each experiment. In a first step, the mean background value generated by Cytochalasin B (a potent glucose transporter inhibitor) treated cells, was subtracted from the mean values of the treated cells. All mean values were obtained from triplicates. For %-Inhibition results, the mean value of the untreated cells (just KRB) was set as 100%. All other mean values were calculated to this relation. IC50 were obtained by regression analysis of dose response curve with 7 or 14 concentrations, respectively, for each compound.

Where [1] appears, read: 20 min, inhibition of 14C 2-deoxy-D-glucose transport into A2780 cells, 20 min compound incubation, read-out: IC50.

Consider `COC(=O)COc1ccc(COc2cc(OC)c(C(=O)N[C@H]3[C@@H](OC)O[C@H](CO)[C@@H](O)[C@@H]3O)cc2Cl)cc1` (relative stereo) [Example 386], for which the IC50 (usually the concentration that gives 50% inhibition) under setting [1] came out at 5.3 µM.

Regarding `COc1cc(OCc2ccc(/C=C/C(=O)NCCCCCC(=O)OC(C)(C)C)cc2)c(Cl)cc1C(=O)N[C@H]1[C@@H](OC)O[C@H](CO)[C@@H](O)[C@@H]1O` (relative stereo) [Example 392], the IC50 under setting [1] turned out to be 1.8 µM. On to `COc1cc(OCc2nc3ccccc3n2CCCCCCCC(=O)O)c(Cl)cc1C(=O)N[C@H]1[C@@H](OC)O[C@H](CO)[C@@H](O)[C@@H]1O` (relative stereo) [Example 482], for which the IC50 under setting [1] came to 8.1 µM. As for `C=CCO[C@@H]1O[C@H](COC(=O)c2ccc(OCc3ccccc3)c(OC)c2)[C@@H](O)[C@H](O)[C@H]1O` [Example 11], the IC50 under setting [1] came out at 67.3 µM. With `CO[C@@H]1O[C@H](COC(=O)c2cc(C)c(OCc3ccccc3)c(C)c2)[C@@H](O)[C@H](O)[C@H]1O` [Example 19], the IC50 under setting [1] is 62.4 µM. Where the note is “A2780, 20 min”, `COc1cc(C(=O)OC[C@H]2O[C@@H](OCC[Si](C)(C)C)[C@H](O)[C@@H](O)[C@@H]2O)cc(Cl)c1OCCc1ccccc1` [Example 28] had an IC50 of 82.5 µM.

Regarding `CO[C@@H]1O[C@H](COC(=O)c2cc(OCc3ccccc3)ccc2C)[C@@H](O)[C@H](O)[C@H]1O` [Example 34], under setting [1], the IC50 came out at 40.7 µM. Where the note is “A2780, 20 min”, `COc1cc(C(=O)OC[C@H]2O[C@@H](OCC[Si](C)(C)C)[C@H](O)[C@@H](O)[C@@H]2O)cc(Cl)c1OC(=O)c1ccccc1` [Example 36] came in with an IC50 of 47.4 µM.

As for `COc1cc(C(=O)OC[C@H]2OC(O)[C@H](O)[C@@H](O)[C@@H]2O)cc(Cl)c1OCCc1ccccc1` (stereo partly shown) [Example 56], the half-inhibitory concentration (IC50) under setting [1] was 43.2 µM. On to `Cc1ccc(OCc2ccccc2)cc1C(=O)OC[C@H]1OC(O)[C@H](O)[C@@H](O)[C@@H]1O` (stereo partly shown) [Example 61], for which the IC50 under setting [1] was determined as 29.2 µM. On to `CO[C@H]1O[C@H](CO)[C@@H](O)[C@H](O)[C@H]1OC(=O)c1cc(Cl)cc(OCc2ccccc2)c1` [Example 74], for which, under setting [1], the IC50 came out at 52.3 µM. Same read-out and setting: to `C#CCCC(=O)Nc1cccc(COc2c(Cl)cc(C(=O)O[C@@H]3C(O)[C@H](O)[C@@H](CO)O[C@@H]3OC)cc2OC)c1` (stereo partly shown) [Example 78] belongs 20.1 µM. For the molecule `COc1cccc(COc2c(Cl)cc(C(=O)O[C@H]3[C@@H](OC)O[C@H](CO)[C@@H](O)[C@@H]3O)cc2OC)c1` [Example 88], the IC50 under setting [1] was determined as 22.2 µM. For the molecule `Cc1ccc(OCc2ccccc2)cc1C(=O)OC[C@H]1OC(O)[C@H](O)[C@@H](O)[C@H]1O` (stereo partly shown) [Example 102], the IC50 under setting [1] amounted to 13.7 µM. With `CO[C@H]1O[C@H](CO)[C@@H](O)[C@H](O)[C@H]1OC(=O)c1cc(Cl)c(OCc2nccn2Cc2ccccc2)c(Cl)c1` [Example 117], under setting [1], the IC50 came to 10 µM.

Take `COc1ncc(COc2c(Cl)c(C)c(C(=O)O[C@H]3[C@@H](OC)O[C@H](CO)[C@@H](O)[C@@H]3O)c(OC)c2Cl)cc1Cl` [Example 126]: under setting [1], the IC50 came out at 5.6 µM. On to `COc1cc(C(=O)O[C@H]2[C@@H](O)[C@@H](CO)O[C@H](OC)[C@@H]2O)cc(Cl)c1OCc1nc2ccccc2n1C(C)C` [Example 127], for which the IC50 under setting [1] is 32.7 µM. As for `COc1cc(OCc2ccccc2)cc(C(=O)OC[C@H]2O[C@@H](OC)[C@H](O)[C@@H](O)[C@@H]2O)c1` [Example 136], the IC50 under setting [1] amounted to 76.4 µM. With `CO[C@@H]1O[C@H](COC(=O)c2cc(OCc3ccccc3)c3cc[nH]c3c2)[C@@H](O)[C@H](O)[C@H]1O` [Example 145], the IC50 under setting [1] was 45.6 µM. Same read-out and setting: with `COc1cc(C(=O)OC[C@H]2O[C@@H](OC)[C@H](O)[C@@H](O)[C@@H]2O)cc(Cl)c1OCc1nc2ccccc2n1C(C)C` [Example 151] the figure was 18.5 µM; with `COc1cc(C(=O)N[C@H]2[C@@H](OC)O[C@H](CO)[C@@H](O)[C@@H]2O)cc(Cl)c1OCc1ccccc1` [Example 179], 38 µM; with `COc1c(Cl)c(OCc2cccc(CNC(=O)OC(C)(C)C)c2)c(Cl)c(C)c1C(=O)N[C@H]1[C@@H](OC)O[C@H](CO)[C@@H](O)[C@@H]1O` [Example 181], 17.2 µM. In the case of `C#CCCCn1c(COc2c(Cl)cc(C(=O)O[C@H]3[C@@H](OC)O[C@H](CO)[C@@H](O)[C@@H]3O)cc2OC)nc2ccccc21` [Example 186], the IC50 under setting [1] came out at 6 µM. Regarding `COc1ccc(COc2c(Cl)cc(C(=O)O[C@H]3[C@@H](OC)O[C@H](CO)[C@@H](O)[C@@H]3O)cc2OC)cc1` [Example 190], the concentration for half-maximal inhibition (IC50) under setting [1] was 10.2 µM.

As to `C#CCCC(=O)Nc1cccc(COc2c(Cl)cc(C(=O)O[C@@H]3[C@@H](O)[C@@H](OC)O[C@H](CO)[C@H]3O)c(C)c2Cl)c1` [Example 205], under setting [1], the IC50 worked out at 27.5 µM. Consider `CO[C@H]1O[C@H](CO)[C@@H](O)[C@H](O)[C@H]1NC(=O)c1cc(Cl)c(OCc2cccc(C(=O)OC(C)(C)C)c2)c(Cl)c1C` [Example 209], for which the IC50 under setting [1] stood at 2.5 µM. Regarding `COc1ncc(COc2c(Cl)cc(C(=O)N[C@H]3[C@@H](OC)O[C@H](CO)[C@@H](O)[C@@H]3O)c(C)c2Cl)cc1Cl` [Example 210], the IC50 under setting [1] stood at 0.6 µM.

Turning to `CCn1c(COc2c(Cl)cc(C(=O)O[C@H]3[C@@H](OC)O[C@H](CO)[C@@H](O)[C@@H]3O)cc2OC)nc2ccc(Br)cc21` [Example 213], the IC50 under setting [1] came out at 1.5 µM. On to `COc1ncc(COc2c(Cl)cc(C(=O)O[C@H]3[C@@H](OC)O[C@H](CO)[C@@H](O)[C@@H]3O)c(C)c2Cl)cc1Cl` [Example 215], for which the IC50 under setting [1] stood at 1.1 µM. For `COc1cc(C(=O)O[C@H]2[C@@H](OC)O[C@H](CO)[C@@H](O)[C@@H]2O)cc(Cl)c1OCc1cnc(OC)c(Cl)c1` [Example 216], under setting [1], the IC50 was 2.2 µM. Regarding `COc1cc(OCc2ccc(/C=C/C(=O)NCCCC(=O)OC(C)(C)C)cc2)c(Cl)cc1C(=O)N[C@H]1[C@@H](OC)O[C@H](CO)[C@@H](O)[C@@H]1O` [Example 236], the IC50 under setting [1] turned out to be 0.4 µM.

As for `COc1cc(C(=O)N[C@H]2[C@@H](OC)O[C@H](CO)[C@@H](O)[C@@H]2O)cc(Cl)c1OCc1nc2ccccc2n1C(C)C` [Example 238], under setting [1], the half-maximal inhibitory concentration (IC50) is 21.7 µM. `CO[C@H]1O[C@H](CO)[C@@H](O)[C@H](O)[C@H]1NC(=O)c1cc(Cl)c(OCc2ccc3c(cnn3C)c2)c(Cl)c1C` [Example 240]: under setting [1], the IC50 is 6 µM. On to `COc1cccc(CCOc2c(Cl)cc(C(=O)O[C@H]3[C@@H](OC)O[C@H](CO)[C@@H](O)[C@@H]3O)c(C)c2Cl)c1` [Example 241], for which the IC50 under setting [1] was 24.5 µM. Same read-out and setting: with `CO[C@H]1O[C@H](CO)[C@@H](O)[C@H](O)[C@H]1OC(=O)c1cc(Cl)c(OCCc2cccc(Cl)c2)c(Cl)c1C` [Example 242] the figure was 19.8 µM.

In the case of `CO[C@H]1O[C@H](CO)[C@@H](O)[C@H](O)[C@H]1OC(=O)c1cc(Cl)c(OCCc2ccc(C)cc2)c(Cl)c1C` [Example 243], the IC50 under setting [1] was 27.4 µM. Turning to `CO[C@H]1O[C@H](CO)[C@@H](O)[C@H](O)[C@H]1OC(=O)c1cc(Cl)c(OCCc2ccc(Cl)cc2)c(Cl)c1C` [Example 244], the IC50 under setting [1] is 22.3 µM. For the molecule `COC(=O)c1ccc(COc2c(Cl)cc(C(=O)N[C@H]3[C@@H](OC)O[C@H](CO)[C@@H](O)[C@@H]3O)c(C)c2Cl)cn1` [Example 245], the IC50 under setting [1] turned out to be 63.6 µM.

For the molecule `COC(=O)c1cnc(COc2c(Cl)cc(C(=O)N[C@H]3[C@@H](OC)O[C@H](CO)[C@@H](O)[C@@H]3O)c(C)c2Cl)cn1` [Example 246], the IC50 under setting [1] turned out to be 51.7 µM. With `COC(=O)c1ccc(COc2c(Cl)cc(C(=O)O[C@H]3[C@@H](OC)O[C@H](CO)[C@@H](O)[C@@H]3O)c(C)c2Cl)cn1` [Example 252], the IC50 under setting [1] was determined as 6.5 µM. On to `COC(=O)c1cnc(COc2c(Cl)cc(C(=O)O[C@H]3[C@@H](OC)O[C@H](CO)[C@@H](O)[C@@H]3O)c(C)c2Cl)cn1` [Example 253], for which the IC50 under setting [1] worked out at 7.1 µM. Turning to `CO[C@H]1O[C@H](CO)[C@@H](O)[C@H](O)[C@H]1OC(=O)c1cc(Cl)c(OCc2cn3c(C)cccc3n2)c(Cl)c1C` [Example 255], under setting [1], the IC50 came to 0.3 µM. Take `CO[C@H]1O[C@H](CO)[C@@H](O)[C@H](O)[C@H]1NC(=O)c1cc(Cl)c(OCc2cn3c(C)cccc3n2)c(Cl)c1C` [Example 256]: the IC50 under setting [1] is 1.1 µM.

In the case of `COC(=O)c1cc(COc2c(Cl)cc(C(=O)N[C@H]3[C@@H](OC)O[C@H](CO)[C@@H](O)[C@@H]3O)c(C)c2Cl)ccc1Cl` [Example 257], the IC50 under setting [1] came to 7.2 µM. For the molecule `CO[C@H]1O[C@H](CO)[C@@H](O)[C@H](O)[C@H]1OC(=O)c1cc(Cl)c(OCc2cccc(CO)n2)c(Cl)c1C` [Example 259], the IC50 under setting [1] is 12.2 µM.

As to `CO[C@H]1O[C@H](CO)[C@@H](O)[C@H](O)[C@H]1NC(=O)c1cc(Cl)c(OCc2ccc3c(c2)nnn3C)c(Cl)c1C` [Example 260], the IC50 under setting [1] worked out at 75.2 µM. Still for that read-out and setting: with `CO[C@H]1O[C@H](CO)[C@@H](O)[C@H](O)[C@H]1OC(=O)c1cc(Cl)c(OCc2ccc3c(c2)nnn3C)c(Cl)c1C` [Example 261] the figure was 0.5 µM; with `COC(=O)c1cc(COc2c(Cl)cc(C(=O)O[C@H]3[C@@H](OC)O[C@H](CO)[C@@H](O)[C@@H]3O)c(C)c2Cl)ccc1Cl` [Example 262], 1 µM; with `CO[C@H]1O[C@H](CO)[C@@H](O)[C@H](O)[C@H]1OC(=O)c1cc(Cl)c(OCc2cccc(C(=O)OC(C)(C)C)c2)c(Cl)c1C` [Example 269], 13.4 µM.
